Emax, EC50 and Emax % data for 27 molecules are collected here from US7928099B2, “Pyrimido [4,5-D] azepine derivatives as 5-HT2c agonists” (Pfizer Inc, priority 2007, dated 2011).

For this experiment, the target named is T1, human recombinant 5-HT2c receptor (Homo sapiens, UniProt P28335).
T1 construct: expressed in transfected cells; host or cells: CHO K1 (Chinese hamster ovary), stably transfected
T1 sequence (P28335 33-458): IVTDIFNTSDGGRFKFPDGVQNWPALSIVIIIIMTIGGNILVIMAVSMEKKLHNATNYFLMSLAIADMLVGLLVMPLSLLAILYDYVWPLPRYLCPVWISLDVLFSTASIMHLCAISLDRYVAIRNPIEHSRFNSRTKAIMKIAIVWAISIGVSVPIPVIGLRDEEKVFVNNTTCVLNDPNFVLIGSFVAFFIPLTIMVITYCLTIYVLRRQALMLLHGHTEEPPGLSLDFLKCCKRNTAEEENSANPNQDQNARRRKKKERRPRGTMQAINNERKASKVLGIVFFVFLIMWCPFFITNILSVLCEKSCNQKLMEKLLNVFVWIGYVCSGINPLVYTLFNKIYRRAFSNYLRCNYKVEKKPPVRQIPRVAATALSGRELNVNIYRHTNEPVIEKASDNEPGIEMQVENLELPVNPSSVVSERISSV
Put plainly: FLIPR fluorescent Ca2+ mobilisation agonist assay in CHO K1 cells (Method 1). It is filed as cell-based. Conditions: for Emax: CHO-K1, efficacy; for Emax / Emax %: percentage of mean maximal response to 10 μM 5-HT; for EC50: agonist affinity, FLIPR; for Emax %: efficacy. The procedure:
The compounds of the invention were evaluated for biological activity by measuring the agonist affinity (EC50) and efficacy (Emax) at the human recombinant 5-HT2c receptor expressed in CHO K1 cells, using a fluorescent based Ca^2+ mobilisation assay format compatible with FLIPR technology (Method 1). Additionally, the binding activity of a compound was determined by measuring its affinity for the human recombinant 5-HT2c receptor membranes from Swiss 3T3 cells (Method 2).
The agonist affinity of the compounds were tested by measuring their ability to induce a fluorescent based Ca^2+ mobilization signal in a FLIPR assay using CHO K1 cells expressing recombinant human 5-HT2C receptor. Both agonist affinity (EC50) and efficacy (Emax) were determined.
Chinese hamster ovary cells (CHO K1) stably transfected with the 5-HT2c receptor were cultured under standard cell culture techniques. Specifically, cells were grown at 37° C. and 5% CO2 in Dulbecco's Modified Eagle's Medium (DMEM) culture media supplemented with 10% dialysed foetal calf serum (FCS), 1% non-essential amino acids, 1 mM sodium pyruvate, 800 μg/mL geneticin and 50 μg/ml zeocin. Cells were harvested for passaging and storage using trypsin-EDTA, centrifugation and resuspension in culture medium. Cells were grown to 60-80% confluency, harvested and adjusted to 15-20×10^6 cells/ml/vial in medium/10% DMSO and stored long-term at −80° C.
Cells were seeded into black-walled clear-bottomed 384 well plates 24 h before use. Frozen cells were defrosted in a 37° C. water bath and immediately transferred into 1 mL/vial 37° C. culture medium, diluted to 10 ml and DMSO removed by centrifugation. The cells were resuspended in 15 ml/vial of cell culture medium, counted and adjusted to give 500,000 cells/mL (10,000 cells/well). […] of cell suspension was added to the 384 well plates which were then incubated overnight at 37° C.
The maximum agonist response was determined with 5-HT at a final assay concentration of 10 μM in the diluent above. The minimum response was determined with Dulbeccos PBS (+CaCl2, +MgCl2) with 0.9% DMSO and 0.05% pluronic F-127. Test compounds, maximum and minimum controls were added to a 384 well polypropylene plate.
The FLIPR calcium assay reagent was diluted with assay buffer (Hank's Balanced Salt Solution (HBSS))/20 mM HEPES and 2.5 mM probenecid (diluted with 1M Sodium hydroxide and DPBS (+CaCl2, +MgCl2)).
20 μl/well FLIPR calcium assay reagent was added to the cell plates, which were incubated for 1 h at 37° C. Cell plates and compound plates were then transferred onto the FLIPR. The assay was run using the appropriate FLIPR program, which initiates the reaction by transferring 15 μL compound into the corresponding, well of the cell plate.
The statistical parameter exported from each well was the max peak height of the response.
For orientation: Calcium flux is commonly read through the fluorescence of an indicator in the cells.

Usually Emax stands for the maximal effect, on the per cent scale that the assay sets. One may read the EC50 as the concentration at which the effect is half-maximal. `CCCNc1nc2c(c(N3CCSCC3)n1)CCNCC2` [Example 111, N-propyl-4-thiomorpholin-4-yl-6,7,8,9-tetrahydro-5H-pyrimido[4,5-d]-azepin-2-amine]: the Emax was found to be 64.3% and the half-maximal effective concentration (EC50) stood at 0.141 µM.
For `c1ccc(Cc2nc3c(c(OCCc4ccncc4)n2)CCNCC3)cc1` [Example 79, 2-benzyl-4-(2-pyridin-4-ylethoxy)-6,7,8,9-tetrahydro-5H-pyrimido[4,5-d]azepine], the Emax amounted to 67.3% and the EC50 amounted to 0.154 µM.
Consider `c1ccc(CCNc2nc3c(c(N4CCSCC4)n2)CCNCC3)cc1` [Example 110, N-(2-phenylethyl)-4-thiomorpholin-4-yl-6,7,8,9-tetrahydro-5H-pyrimido[4,5-d]azepin-2-amine], for which the Emax was determined as 38.8% and the concentration giving a half-maximal response (EC50) turned out to be 0.604 µM.
`FC(F)(F)CCCOc1nc(Cc2ccccc2)nc2c1CCNCC2` [Example 84, 2-benzyl-4-(4,4,4-trifluorobutoxy)-6,7,8,9-tetrahydro-5H-pyrimido[4,5-d]azepine]: the Emax came to 36.4% and the half-maximal effective concentration (EC50) came to 0.395 µM.
The corresponding values for `CC(C)(C)OCCOc1nc(Cc2ccccc2)nc2c1CCNCC2` [Example 81, 2-benzyl-4-(2-tert-butoxyethoxy)-6,7,8,9-tetrahydro-5H-pyrimido[4,5-d]azepine] are 60.3% and 0.195 µM.
Turning to `c1ccc(Cc2nc3c(c(OCC4CCOCC4)n2)CCNCC3)cc1` [Example 80, 2-benzyl-4-(tetrahydro-2H-pyran-4-ylmethoxy)-6,7,8,9-tetrahydro-5H-pyrimido[4,5-d]azepine], the Emax was 74.2% and the EC50 turned out to be 0.184 µM.
Turning to `Cc1ccc(Cc2ncc3c(n2)CCNCC3)cc1` [Example 64, 2-(4-Methylbenzyl)-6,7,8,9-tetrahydro-5H-pyrimido[4,5-d]azepine], the Emax amounted to 63.1% and the EC50 came to 0.1 µM.
Take `C1Cc2nc(N3CCOCC3)nc(N3CCSCC3)c2CCN1` [Example 96, 2-morpholin-4-yl-4-thio-morpholin-4-yl-6,7,8,9-tetrahydro-5H-pyrimido-[4,5-d]azepin-4-amine]: the maximal effect (Emax) was 66.9% and the EC50 worked out at 0.311 µM.
`Cc1ncccc1COc1nc(Cc2ccccc2)nc2c1CCNCC2` [Example 77, 2-benzyl-4-[(2-methyl-pyridin-3-yl)methoxy]-6,7,8,9-tetrahydro-5H-pyrimido[4,5-d]azepine]: the maximal effect (Emax) came out at 70.3% and the concentration giving a half-maximal response (EC50) came out at 0.13 µM.
Regarding `c1ccc(Cc2nc3c(c(OCCc4ccccn4)n2)CCNCC3)cc1` [Example 73, 2-benzyl-4-(2-pyridin-2-ylethoxy)-6,7,8,9-tetrahydro-5H-pyrimido[4,5-d]azepine], the Emax stood at 83.3% and the EC50 worked out at 0.00861 µM.
`CN(C)c1nc(N(C)Cc2ccccc2)nc2c1CCNCC2` [Example 113, N-2-benzyl-N-2,N-4,N-4-trimethyl-6,7,8,9-tetra-hydro-5H-pyrimido[4,5-d]azepine-2,4-diamine]: the concentration giving a half-maximal response (EC50) worked out at 0.279 µM and the Emax % is recorded as 50.8%.
Take `Fc1cccc(Cc2ncc3c(n2)CCNCC3)c1` [Example 61, 2-(3-Fluorobenzyl)-6,7,8,9-tetrahydro-5H-pyrimido[4,5-d]azepine]: the maximal response (Emax) is 67.1% and the concentration for a half-maximal effect (EC50) worked out at 0.125 µM.
As to `c1ccc(Cc2nc3c(c(OCC4CCCO4)n2)CCNCC3)cc1` (stereo not drawn) [Example 74, 2-benzyl-4-(2-tetra-hydrofuran-2-ylmethoxy)-6,7,8,9-tetrahydro-5H-pyrimido[4,5-d]azepine], the maximal response (Emax) was determined as 86.7% and the EC50 was found to be 0.0171 µM.
With `CN(Cc1ccccc1)c1nc2c(c(N3CCOCC3)n1)CCNCC2` [Example 105, N-benzyl-N-methyl-4-morpholin-4-yl-6,7,8,9-tetrahydro-5H-pyrimido-[4,5-d]azepin-2-amine], the Emax was determined as 64.1% and the EC50 came out at 0.202 µM.
The corresponding values for `Clc1ccc(Cc2ncc3c(n2)CCNCC3)cc1` [Example 57, 2-(4-Chlorobenzyl)-6,7,8,9-tetrahydro-5H-pyrimido[4,5-d]azepine] are 64.7% and 0.192 µM.
`CCCCNc1nc(N2CCSCC2)nc2c1CCNCC2` [Example 89, N-butyl-2-thiomorpholin-4-yl-6,7,8,9-tetrahydro-5H-pyrimido[4,5-d]-azepin-4-amine]: the maximal effect (Emax) came to 48.2% and the EC50 was determined as 0.0336 µM.
In the case of “N-benzyl-N-methyl-6,7,8,9-tetrahydro-5H-pyrimido[4,5-d]azepin-2-amine hydrochloride [Example 49]”, the EC50 is 0.182 µM and the Emax % came to 71.20%.
`Fc1ccccc1Cc1ncc2c(n1)CCNCC2` [Example 60, 2(2-Fluorobenzyl)-6,7,8,9-tetrahydro-5H-pyrimido[4,5-d]azepine]: the maximum response (Emax) worked out at 65.1% and the concentration giving a half-maximal response (EC50) turned out to be 0.194 µM.
On to `C1Cc2nc(NC3CC3)nc(N3CCSCC3)c2CCN1` [Example 109, N-cyclopropyl-4-thio-morpholin-4-yl-6,7,8,9-tetrahydro-5H-pyrimido-[4,5-d]azepin-2-amine], for which the Emax is 87.7% and the EC50 was found to be 0.247 µM.
The corresponding values for `CCN(C)c1nc2c(c(NCC(C)C)n1)CCNCC2` [Example 101, N-2-ethyl-N-4-isobutyl-N-2-methyl-6,7,8,9-tetra-hydro-5H-pyrimido[4,5-d]azepine-2,4-diamine] are 49.9% and 0.326 µM.
For the molecule `C1Cc2nc(N3CCSCC3)nc(N3CCSCC3)c2CCN1` [Example 94, 2,4-dithiomorpholin-4-yl-6,7,8,9-tetrahydro-5H-pyrimido[4,5-d]azepine], the maximum response (Emax) turned out to be 80.8% and the EC50 is 0.261 µM.
With `CCN(C)c1nc2c(c(NC)n1)CCNCC2` [Example 102, N-2-ethyl-N-2,N-4-dimethyl-6,7,8,9-tetra-hydro-5H-pyrimido[4,5-d]-azepine-2,4-diamine], the Emax was determined as 74.3% and the EC50 came to 0.173 µM.
For `CCNc1nc(N2CCc3ccccc3C2)nc2c1CCNCC2` [Example 87, 2-(3,4-dihydroisoquinolin-2(1H)-yl)-N-ethyl-6,7,8,9-tetrahydro-5H-pyrimido-[4,5-d]azepin-4-amine], the Emax turned out to be 57.1% and the EC50 is 0.0483 µM.
The corresponding values for `CNc1nc(N2CCSCC2)nc2c1CCNCC2` [Example 93, N-methyl-2-thio-morpholin-4-yl-6,7,8,9-tetrahydro-5H-pyrimido-[4,5-d]azepin-4-amine] are 77% and 0.0115 µM.
In the case of `N#Cc1ccc(CCOc2nc(Cc3ccccc3)nc3c2CCNCC3)cc1` [Example 75, 4-{2-[(2-benzyl-6,7,8,9-tetrahydro-5H-pyrimido-[4,5-d]azepin-4-yl)oxy]ethyl}-benzonitrile], the Emax came to 90.1% and the EC50 came to 0.0581 µM.
As for `CN(C)c1nc2c(c(N(C)C)n1)CCNCC2` [Example 107, N,N,N′,N′-tetramethyl-6,7,8,9-tetrahydro-5H-pyrimido[4,5-d]azepine-2,4-diamine], the Emax worked out at 43.2% and the EC50 was 0.363 µM.
As to `CCN(C)c1nc(N2CCOCC2)nc2c1CCNCC2` [Example 95, N-ethyl-N-methyl-2-morpholin-4-yl-6,7,8,9-tetrahydro-5H-pyrimido-[4,5-d]azepin-4-amine], the Emax amounted to 88.4% and the EC50 is 0.229 µM.
